# Laboratory results taken from patent US5561042A, “Diamine platinum naphthalimide complexes as antitumor agents” (Cancer Therapy and Research Center, priority 1995, dated 1996).
# Entries after “also recorded” stand apart in the source; their conditions may differ.
# Legend:
# [1] = system: SV40 DNA (Form I, negatively supercoiled); experiment: SV40 DNA unwinding / mobility by agarose gel electrophoresis; format: binding; conditions: for effect on SV40 DNA conformation (in words): agarose gel electrophoresis, 37° C.
# Text: The model used in this study, negatively supercoiled, closed circular, plasmid SV40 DNA (Form I), undergoes several stages of drug-induced unwinding that are monitored by agarose electrophoresis.
# Central to the understanding of compound 21 action was the ability to assess whether the drug was bound irreversibly (presumably covalently) or reversibly. The system used to extract the reversibly bound drug went through several phases of development. The classic phenol/chloroform mixture cannot completely extract all of the drug. However, the phenol/chloroform mixture effectively extracts the drug in the presence of at least 0.1M NaCl.
# Three different systems, A, B and D were used to probe the mode of interaction of compound 21 with DNA.
# System A: Compound 21 and DNA in TE buffer (10 mM Tris-HCl, pH 7.5 and 1 mM EDTA) without phenol/chloroform.
# System B: Compound 21 and DNA in TE buffer with 0.5M NaCl without phenol/chloroform extraction.
# System D: Compound 21 and DNA in TE buffer with 0.5M NaCl followed by phenol/chloroform extraction.
# In general, SV40 DNA (90% Form I, negatively supercoiled, and 10% Form II, nicked, Gibco BRL) was incubated with graded concentrations of compound 21 at 37° C. for the indicated time periods in the appropriate system. The isolated DNA was then separated by agarose gel electrophoresis (1% Seakem agarose in 1× TAE buffer) in TAE buffer with 80 volts for 2 hours. Gels were stained with ethidium bromide (0.5 μg/ml) for 15 minutes, washed and then recorded with polaroid film while being irradiated with a UV transilluminator (λ=254 nm).
# [2] = system: EcoRI and Taq1 digested SV40 DNA; experiment: DNA crosslinking, EcoRI/Taq I digested SV40 DNA, alkaline agarose gel; format: binding; conditions: 0.5 and 1 μM, 37° C., 17 hours
# Description: Isolated SV40 DNA (Gibco BRL) was digested with EcoRI (3 units/μg DNA) (Promega #R6011) at 37° C. for two hours, and concentrated through a spin column (Microcon 50, Amicon, Inc.). The EcoRI digested SV40 DNA was then digested with Taq I (3 units/μg DNA) (Promega #6151) at 65° C. for an additional 2 hours. After digestion, DNA was extracted once with phenol/chloroform/isoamyl alcohol (25:24:1), and once with chloroform/isoamyl alcohol (24:1). The digested DNA was then labelled on the 5' end with ^32 P using the DuPont/NEN T4 polynucleotide kinase 5' end labelling system and […]. Labelled DNA was loaded onto a pre-equilibrated Sephadex 25 spin purification column (Quick-spin, Boehringer-Mannheim Biochemicals) and eluted into 400 μl TE (20 mM Tris HCl, 1 mM EDTA). Eluted DNA was ethanol precipitated overnight at -20° C. and spun in an Eppendorf microcentrifuge for 1 hour at 4° C., 14,000 rpm.
# Precipitated DNA was suspended in TE (20 mM Tris HCl, pH 8, 1 mM EDTA) at approximately 0.1 μg/μl and incubated at 37° C. for 17 hours in a 50 μl volume with 0, 0.5, 1.0, 1.5 or 2 μM compound 21. Following drug treatment, DNA was again ethanol precipitated, spun down, dried briefly and suspended in 20 μl water. […]
substance,measurement,setting,value
"8-(3'-nitro-1',8'-naphthalimide)-3,6-diazaoctylamine dichloroplatinum(II) [Compound 21]",effect on SV40 DNA conformation (in words),[1],potent distortion of DNA conformation; also recorded: gradually converts the negatively supercoiled SV40 DNA (Form I) to relaxed Form I
same,effect on SV40 DNA conformation (in words),[1]; listed as compound 21,"observed instantly; also recorded: without incubation, the effect of compound 21 on DNA can be completely reversed using System D; also recorded: more of the mobility shift is retained, with an actual increase in drug effect at the full 8 hours; also recorded: no change in DNA mobility shift is observed even under system D at 8 hours; also recorded: can be returned to normal mobility after treatment with thiourea; also recorded: reversal of compound 21 on SV40 DNA by removal of compound 21 with phenol/chloroform extraction in 0.5M NaCl; also recorded: no change in mobility after phenol/chloroform, 0.5M NaCl extraction"
same,decrease of the concentration at which form I and II comigrate,[1]; from time zero to 8 hours,2 fold
same,time to plateau of irreversible effect on DNA conformation,[1]; time course studies,6 to 8 h
same,formation of DNA cross links (in words),[2],"formation of higher molecular weight DNA, around 4.6 and 5.8 Kb; also recorded: cross-linked DNA of 4.6-5.8 Kb"
